Patent publication US20090281133A1, “Heterocyclic antiviral compounds” (Roche Palo Alto LLC, priority 2008, published 2009)

Experiments:
Human CCR5 receptor = biological target: T1, Human CCR5 receptor (Homo sapiens, UniProt P51681); assay: Human CCR5 receptor-ligand binding assay; details: CHO-Gα16-hCCR5 cells, 125I RANTES binding
T1 construct: expressed in transfected cells
From the text: Human CCR5 Receptor-Ligand Binding Assay Protocol
Human CCR5 receptor (Genebank ID: 29169292) was cloned into mammalian expression vector, pTarget (Promega). The construct was transfected into CHO-Gα16 cells by using Fugene Reagent (Roche). Clones were selected under antibiotic pressure (G418 and Hygromycin) and sorted 4 times with a fluorescence activates cell sorter and a monoclonal antibody specific for CCR5 receptor (BD Biosciences Pharmigen, Mab 2D7, Cat. No. 555993). The clone with highest expression (100,000 copies per cell) was chosen for the binding assays.
Adherent cells in […] tissue culture flask (˜90% confluent) were harvested using 1 mM EDTA in PBS (phosphate-buffered saline) without Ca^2+ and Mg^2+. Cells were washed twice with PBS containing no Ca^2+ and Mg^2+. CHO-Gα16-hCCR5 cells were then resuspended (1×10^6/mL) in ice cold binding buffer (50 mM HEPES, 1 mM CaCl2, 5 mM MgCl2, 0.5% BSA, 0.05% NaN3, pH 7.24), pH 7.4), supplemented with freshly made 0.5% BSA and 0.05% NaN3.
Eighty μl CHO-Gα16-hCCR5 (1×10^6/mL) cells were added to 96 well plates. All dilutions were made in binding buffer (50 mM HEPES, 1 mM CaCl2, 5 mM MgCl2, 0.5% BSA, 0.05% NaN3, pH 7.24).
The plates were incubated on a cell shaker at RT for 2 h with a final concentration of 0.1 nM ^125I RANTES or ^125I MIP-1α or ^125I MIP-1β. The compound dilutions were made in PBS, 1% BSA. Total reaction volume was 100 μl per well. The test compounds were added to the cells prior to the addition of radioligand.
After incubation, the cells were harvested onto GF/C filter plates using Packard cell harvester. Filters were pretreated with 0.3% PEI/0.2% BSA for 30 min. The filter plate was washed rapidly 5 times with 25 mM HEPES, 500 mM NaCl, 1 mM CaCl2 and 5 mM MgCl2 adjusted to pH 7.1. Plates were dried in oven (70° C.) for 20 min, added with 40 μl scintillation fluid and sealed with Packard TopSeal-A. Packard Top Count was used to measure of the radioactivity for 1 min per well.
Total binding was determined with control wells added with radioisotope and buffer and the non-specific binding was determined using an excess cold RANTES to some of the control wells. Specific binding was determined by subtracting the non-specific form total binding. Results are expressed as the percentage of specific ^125I RANTES binding. IC50 values were determined using varying concentrations of the test ligand in triplicates and the data was analyzed using GraphPad Prism (GraphPad, San Diego, Calif.).

[1] = test system: CCR5-mediated fusion of Hela-R5 cells with CEM-NKr-CCR5-Luc cells; assay: CCR5-mediated cell-cell fusion (CCF) assay; assay type: cell-based; details: luciferase readout, 24 hrs co-culture
Experimental: CCF assay was performed as described before (C. Ji, J. Zhang, N. Cammack and S. Sankuratri, J. Biomol. Screen. 2006 11(6):652-663). Hela-R5 cells (express gp160 from R5-tropic virus and HIV-1 Tat) were plated in 384 well white culture plates (BD Bioscience, Palo Alto, Calif.) at 7.5×10^3 cells per well in phenol red-free Dulbecco's Modified Eagle Medium (DMEM) supplemented with 10% FBS, 1× Pen-Strep, 300 μg/mL G418, 100 μg/mL hygromycin, and 1 μg/mL Doxycycline (Dox) (BD Bioscience, Palo Alto, Calif.), using Multimek (Beckman, Fullerton, Calif.) and incubated at 37° C. overnight to induce the expression of gp160. Ten μL diluted compounds in medium containing 5% DMSO were added to the cells, followed by the addition of CEM-NKr-CCR5-Luc (obtained from NIH AIDS Research & Reference Reagents Program) that expresses CD4 and CCR5 and carries a HIV-2 long terminal repeat (LTR)-driven luciferase reporter gene at 1.5×10^4 cells/15 μL/well and incubated for 24 hrs. At the end of co-culture, 15 μL of Steady-Glo luciferase substrate was added into each well, and the cultures were sealed and gently shaken for 45 min. The luciferase activity were measured for 10 sec per well as luminescence by using 16-channel TopCount NXT (PerkinElmer, Shelton, Conn.) with 10 min dark adaptation and the readout is count per second (CPS). […]

[2] = test system: collagen induced arthritis; details: collagen-induced arthritis model; cited from earlier work
HIV = details: cited from earlier work

T1 sequence (P51681 whole entry): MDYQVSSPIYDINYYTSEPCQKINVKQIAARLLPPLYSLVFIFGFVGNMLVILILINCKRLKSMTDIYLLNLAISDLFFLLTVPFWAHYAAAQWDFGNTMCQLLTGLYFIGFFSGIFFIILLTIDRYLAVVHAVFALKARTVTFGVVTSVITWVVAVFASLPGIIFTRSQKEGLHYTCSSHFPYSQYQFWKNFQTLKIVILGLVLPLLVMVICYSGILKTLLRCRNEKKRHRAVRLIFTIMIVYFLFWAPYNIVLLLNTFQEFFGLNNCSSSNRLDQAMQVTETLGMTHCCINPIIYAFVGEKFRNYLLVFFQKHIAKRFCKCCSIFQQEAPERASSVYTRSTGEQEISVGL

| Molecule | IC50 (Human CCR5 receptor) | further results |
| --- | --- | --- |
| CCCCC1CN(CC2CCOCC2)C(=O)CC12CCN(C1(C)CCN(C(=O)c3c(C)cc(C#N)nc3C)CC1)CC2 (centres unmarked) [I-13] | 19.7 nM | – |
| CCCCC1CN(C[C@H]2CC[C@H](OCC)CC2)C(=O)CC12CCN(C1(C)CCN(C(=O)c3c(C)ncnc3C)CC1)CC2 (mixture of isomers) [I-1, 5-Butyl-9-[1-(4,6-dimethyl-pyrimidine-5-carbonyl)-4-methyl-piperidin-4-yl]-3-(4-ethoxy-cyclohexylmethyl)-3,9-diaza-spiro[5.5]undecan-2-one] | 30.4 nM | IC50 [1]: < 2.5 nM |
| CCCCC1CN(C[C@H]2CC[C@@H](OCC)CC2)C(=O)CC12CCN(C1(C)CCN(C(=O)c3c(C)ncnc3C)CC1)CC2 (some centres unmarked) [I-9] | 32 nM | – |
| CCCCC1CN(C[C@H]2CCOC2)C(=O)CC12CCN(C1(C)CCN(C(=O)c3c(C)ccnc3C)CC1)CC2 (stereo partly drawn) [I-14, 5-Butyl-9-[1-(2,4-dimethyl-pyridine-3-carbonyl)-4-methyl-piperidin-4-yl]-3-[(R)-1-(tetrahydro-furan-3-yl)methyl]-3,9-diaza-spiro[5.5]undecan-2-one] | 17.7 nM | – |
| CCCCC1CN(CC2CCOCC2)C(=O)CC12CCN(C1(C)CCN(C(=O)c3c(C)ccnc3C)CC1)CC2 (centres unmarked) [I-12] | 13.7 nM | – |
| CCCCC1CN(CC2CCCCO2)C(=O)CC12CCN(C1(C)CCN(C(=O)c3c(C)ncnc3C)CC1)CC2 (centres unmarked) [I-11] | 24.6 nM | – |
| CCCCC1CN(CC2CCN(S(C)(=O)=O)CC2)C(=O)CC12CCN(C1(C)CCN(C(=O)c3c(C)ncnc3C)CC1)CC2 (centres unmarked) [I-6] | 16.9 nM | – |
| CCCCC1CN(CC2CCN(C(=O)OC)CC2)C(=O)CC12CCN(C1(C)CCN(C(=O)c3c(C)ncnc3C)CC1)CC2 (centres unmarked) [I-8, 4-{1-Butyl-9-[1-(4,6-dimethyl-pyrimidine-5-carbonyl)-4-methyl-piperidin-4-yl]-4-oxo-3,9-diaza-spiro[5.5]undec-3-ylmethyl}-piperidine-1-carboxylic acid methyl ester] | 24.4 nM | – |
| CCCCC1CN(CC2CCOCC2)C(=O)CC12CCN(C1(C)CCN(C(=O)c3c(C)ncnc3C)CC1)CC2 (centres unmarked) [I-4] | 17.2 nM | melting point: 92.8 to 100.1 °C |
| CCCCC1CN(C[C@@H]2CCOC2)C(=O)CC12CCN(C1(C)CCN(C(=O)c3c(C)ccnc3C)CC1)CC2 (some centres unmarked) [I-10] | 24.9 nM | – |
| CCCCC1CN(CC2CCN(C(C)=O)CC2)C(=O)CC12CCN(C1(C)CCN(C(=O)c3c(C)ncnc3C)CC1)CC2 (centres unmarked) [I-7] | 51.7 nM | – |
| CCCCC1CN(CC2CCC(OCC)CC2)C(=O)CC12CCN(C1(C)CCN(C(=O)c3c(C)ncnc3C)CC1)CC2 (single isomer, unassigned) [I-3] | 32.9 nM | – |
| Cc1ccc(-c2ccc3c(c2)C=C(C(=O)Nc2ccc(C[N+](C)(C)C4CCOCC4)cc2)CCC3)cc1.[Cl-] [TAK-779] | – | incidence and severity of arthritis [2]: reduce both the incidence and severity of arthritis; infiltration of inflammatory CCR5+ T-cells into the joint [2]: inhibited |
| CCCCC1CN(C[C@H]2CC[C@H](OC)CC2)C(=O)CC12CCN(C1(C)CCN(C(=O)c3c(C)ncnc3C)CC1)CC2 (some centres unmarked) [I-5] | 20.8 nM | – |
| CCCCC1CN(CC2CCC(OCC)CC2)C(=O)CC12CCN(C1(C)CCN(C(=O)c3c(C)ncnc3C)CC1)CC2 (single isomer, unassigned) [I-2] | 26.8 nM | – |
| CCCCC1CN(CC2CCC(O)CC2)C(=O)CC12CCN(C1(C)CCN(C(=O)c3c(C)ccnc3C)CC1)CC2 (centres unmarked) [I-15, 5-Butyl-9-[1-(2,4-dimethyl-pyridine-3-carbonyl)-4-methyl-piperidin-4-yl]-3-(4-hydroxy-cyclohexylmethyl)-3,9-diaza-spiro[5.5]undecan-2-one] | 30.5 nM | – |
| RANTES: CC chemokine, naturally occurring chemokine that can stimulate the CCR5 receptor (protein, UniProt P13501 24-91, looked up) C-C motif chemokine 5: SPYSSDTTPCCFAYIARPLPRAHIKEYFYTSGKCSNPAVVFVTRKNRQVCANPEKKWVREYINSLEMS | – | block of HIV entry into the cells (HIV): block HIV entry into the cells |
